Results as given in BindingDB's records for doi:10.1016/S0960-894X(97)00417-4 (1997).
pKi: −log10 of the molar value.

Assay: Inhibition of [3H]pentazocine binding to Sigma opioid receptor type 1

SMILES | pKi
CC1(C)C2CC[C@]1(C)CN(CCC1CCCCC1)C2 [(S)-3-(2-Cyclohexyl-ethyl)-1,8,8-trimethyl-3-aza-bicyclo[3.2.1]octane] | 8.66
CC1(C)C2CC[C@]1(C)CN(CC1CCCCC1)C2 [(S)-3-Cyclohexylmethyl-1,8,8-trimethyl-3-aza-bicyclo[3.2.1]octane] | 8.89
CC1(C)C2CC[C@]1(C)CN(CCCCC1CCCCC1)C2 [(S)-3-(4-Cyclohexyl-butyl)-1,8,8-trimethyl-3-aza-bicyclo[3.2.1]octane] | 8.92
C=CCN1CC[C@@]2(C)c3cc(O)ccc3C[C@H]1[C@H]2C [(1S,9S,13S)-10-allyl-1,13-dimethyl-10-azatricyclo[7.3.1.0~2,7~]trideca-2,4,6-trien-4-ol] | 6.80
CC1(C)C2CC[C@]1(C)CN(CCC1CCCCCCC1)C2 [(S)-3-(2-Cyclooctyl-ethyl)-1,8,8-trimethyl-3-aza-bicyclo[3.2.1]octane] | 8.54
CC1(C)C2CC[C@]1(C)CN(CCCC1CCCCC1)C2 [(S)-3-(3-Cyclohexyl-propyl)-1,8,8-trimethyl-3-aza-bicyclo[3.2.1]octane] | 8.60
CC1(C)C2CC[C@]1(C)CN(CCC1CCCC1)C2 [(S)-3-(2-Cyclopentyl-ethyl)-1,8,8-trimethyl-3-aza-bicyclo[3.2.1]octane] | 8.77
CC1(C)C2CC[C@@]1(C)CN(CC1CCCCC1)C2 [(R)-3-Cyclohexylmethyl-1,8,8-trimethyl-3-aza-bicyclo[3.2.1]octane] | 8.96
CC1(C)C2CC[C@@]1(C)CN(CCC1CCCCC1)C2 [(R)-3-(2-Cyclohexyl-ethyl)-1,8,8-trimethyl-3-aza-bicyclo[3.2.1]octane] | 8.85
CC1(C)C2CC[C@]1(C)CN(CCC1C3CC4CC(C3)CC1C4)C2 (stereo partly drawn) [(S)-3-(2-Adamantan-2-yl-ethyl)-1,8,8-trimethyl-3-aza-bicyclo[3.2.1]octane] | 8.37
CC1(C)C2CC[C@]1(C)CN(C1CCCCC1)C2 [(S)-3-Cyclohexyl-1,8,8-trimethyl-3-aza-bicyclo[3.2.1]octane] | 8.52
CC1(C)C2CC[C@]1(C)CN(CCC1CCCCCC1)C2 [(S)-3-(2-Cycloheptyl-ethyl)-1,8,8-trimethyl-3-aza-bicyclo[3.2.1]octane] | 8.54
